According to patent US8309734B2 (Hoffmann-La Roche Inc., priority 2008, dated 2012):

Target: T1, human GPBAR1 receptor (Homo sapiens, UniProt Q8TDU6)
T1 construct: expressed in transfected cells
T1 sequence (Q8TDU6 1-330): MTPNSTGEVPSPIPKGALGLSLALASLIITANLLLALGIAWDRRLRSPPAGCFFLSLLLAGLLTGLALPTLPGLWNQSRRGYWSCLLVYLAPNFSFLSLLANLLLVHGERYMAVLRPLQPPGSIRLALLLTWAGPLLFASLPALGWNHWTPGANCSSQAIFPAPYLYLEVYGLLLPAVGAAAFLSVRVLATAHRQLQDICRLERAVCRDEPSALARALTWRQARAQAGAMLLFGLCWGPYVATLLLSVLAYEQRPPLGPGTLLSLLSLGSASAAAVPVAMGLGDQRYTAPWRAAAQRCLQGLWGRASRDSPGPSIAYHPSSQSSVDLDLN
Assay: functional cAMP assay in CHO-dhfr(minus) cells expressing human GPBAR1 receptors
Type: cell-based
Conditions: cAMP increase (TR-FRET) in CHO-dhfr(minus) cells expressing human GPBAR1; compounds incubated 30 min at 30° C.
Procedure: The final clone was verified by DNA sequence analysis. The plasmid was transfected into CHO cells deficient in dihydrofolate reductase activity (CHO-dhfr-) using Lipofectamine plus (Invitrogen). Clones were isolated in limited dilution conditions and identified by activities in the cAMP assay using lithocholic acid as agonist.
The growth medium was exchanged with Krebs Ringer Bicarbonate buffer with 1 mM IBMX and incubated at 30° C. for 30 mM. Compounds were added to a final assay volume of 100 μl and incubated for 30 min at 30° C. […] The time-resolved energy transfer is measured by a TRF reader (Evotec Technologies GmbH, Hamburg Germany), equipped with a ND:YAG laser as excitation source. The plate is measured twice with the excitation at 355 nm and at the emission with a delay of 100 ns and a gate of 100 ns, total exposure time 10s at 730 (bandwith 30 nm) or 645 nm (bandwith 75 nm), respectively.
EC50 values were determined using Activity Base analysis (ID Business Solution, Limited). […] Specificity for GPBAR1 was tested in non-transfected CHO cells in the same assay as above.

Molecule `O=C(c1cccnc1Oc1cccc(C(F)(F)F)c1)N1CCCc2ccccc21` [Example 1, (3,4-Dihydro-2H-quinolin-1-yl)-[2-(3-trifluoromethyl-phenoxy)-pyridin-3-yl]-methanone] has an EC50 of 396 nM.
`O=C(c1cccnc1Oc1ccccc1Cl)N1CCCc2ccccc21` [Example 2, [2-(2-Chloro-phenoxy)-pyridin-3-yl]-(3,4-dihydro-2H-quinolin-1-yl)-methanone] was tested, and the EC50 was 989 nM.
`O=C(c1cccnc1Oc1cccc(Cl)c1)N1CCCc2ccccc21` [Example 3, [2-(3-Chloro-phenoxy)-pyridin-3-yl]-(3,4-dihydro-2H-quinolin-1-yl)-methanone] gave an EC50 of 192 nM.
`Cc1ccc2c(c1)CCCN2C(=O)c1cccnc1Oc1cccc(C(F)(F)F)c1` [Example 4, (6-Methyl-3,4-dihydro-2H-quinolin-1-yl)-[2-(3-trifluoromethyl-phenoxy)-pyridin-3-yl]-methanone] gave an EC50 of 1400 nM.
For `Cc1ccc2c(c1)CCCN2C(=O)c1cccnc1Oc1cccc(Cl)c1` [Example 5, [2-(3-Chloro-phenoxy)-pyridin-3-yl]-(6-methyl-3,4-dihydro-2H-quinolin-1-yl)-methanone], the EC50 was 649 nM.
Molecule `O=C(c1cccnc1Oc1ccc(Cl)c(Cl)c1)N1CCCc2ccccc21` [Example 6, [2-(3,4-Dichloro-phenoxy)-pyridin-3-yl]-(3,4-dihydro-2H-quinolin-1-yl)-methanone] has an EC50 of 996 nM.
In the case of `N#Cc1cccc(Oc2ncccc2C(=O)N2CCCc3ccccc32)c1` [Example 7, 3-[3-(3,4-Dihydro-2H-quinoline-1-carbonyl)-pyridin-2-yloxy]-benzonitrile], the EC50 is reported as 575 nM.
For `Cc1cccc(Oc2ncccc2C(=O)N2CCCc3ccccc32)c1` [Example 8, (3,4-Dihydro-2H-quinolin-1-yl)-(2-m-tolyloxy-pyridin-3-yl)-methanone], the EC50 was 644 nM.
`Cc1ccc(Oc2ncccc2C(=O)N2CCCc3ccccc32)cc1Cl` [Example 9, [2-(3-Chloro-4-methyl-phenoxy)-pyridin-3-yl]-(3,4-dihydro-2H-quinolin-1-yl)-methanone] was tested, and the EC50 was 1010 nM.
In the case of `O=C(c1cccnc1Oc1ccc(F)c(Cl)c1)N1CCCc2ccccc21` [Example 10, [2-(3-Chloro-4-fluoro-phenoxy)-pyridin-3-yl]-(3,4-dihydro-2H-quinolin-1-yl)-methanone], the EC50 is reported as 53 nM.
Work on `Cc1ccc(Cl)cc1Oc1ncccc1C(=O)N1CCCc2ccccc21` [Example 11, [2-(5-Chloro-2-methyl-phenoxy)-pyridin-3-yl]-(3,4-dihydro-2H-quinolin-1-yl)-methanone] yielded an EC50 of 153 nM.
`O=C(c1cccnc1Oc1cccc(Cl)c1Cl)N1CCCc2ccccc21` [Example 12, [2-(2,3-Dichloro-phenoxy)-pyridin-3-yl]-(3,4-dihydro-2H-quinolin-1-yl)-methanone] showed an EC50 of 1150 nM.
For `O=C(c1cccnc1Oc1cc(F)cc(Cl)c1)N1CCCc2ccccc21` [Example 13, [2-(3-Chloro-5-fluoro-phenoxy)-pyridin-3-yl]-(3,4-dihydro-2H-quinolin-1-yl)-methanone], the EC50 was 149 nM.
For `O=C(c1cccnc1Oc1cc(Cl)c(Cl)cc1Cl)N1CCCc2ccccc21` [Example 14, (3,4-Dihydro-2H-quinolin-1-yl)-[2-(2,4,5-trichloro-phenoxy)-pyridin-3-yl]-methanone], the EC50 was 236 nM.
With `O=C(c1ccccc1)c1cccc(Oc2ncccc2C(=O)N2CCCc3ccccc32)c1` [Example 15, [2-(3-Benzoyl-phenoxy)-pyridin-3-yl]-(3,4-dihydro-2H-quinolin-1-yl)-methanone] the EC50 was 1690 nM.
Work on `O=C(c1cccnc1Oc1cccc(OC(F)(F)F)c1)N1CCCc2ccccc21` [Example 16, (3,4-Dihydro-2H-quinolin-1-yl)-[2-(3-trifluoromethoxy-phenoxy)-pyridin-3-yl]-methanone] yielded an EC50 of 1920 nM.
Work on `O=C(c1cccnc1Oc1cc(Cl)cc(Cl)c1)N1CCCc2ccccc21` [Example 17, [2-(3,5-Dichloro-phenoxy)-pyridin-3-yl]-(3,4-dihydro-2H-quinolin-1-yl)-methanone] yielded an EC50 of 176 nM.
`O=C(c1cccnc1Oc1cccc(F)c1)N1CCCc2ccccc21` [Example 18, (3,4-Dihydro-2H-quinolin-1-yl)-[2-(3-fluoro-phenoxy)-pyridin-3-yl]-methanone] showed an EC50 of 322 nM.
With `CC(C)c1cccc(Oc2ncccc2C(=O)N2CCCc3ccccc32)c1` [Example 19, (3,4-Dihydro-2H-quinolin-1-yl)-[2-(3-isopropyl-phenoxy)-pyridin-3-yl]-methanone] the EC50 was 625 nM.
For `CCc1cccc(Oc2ncccc2C(=O)N2CCCc3ccccc32)c1` [Example 20, (3,4-Dihydro-2H-quinolin-1-yl)-[2-(3-ethyl-phenoxy)-pyridin-3-yl]-methanone], the EC50 was 473 nM.
With `O=C(c1cccnc1Oc1cccc(I)c1)N1CCCc2ccccc21` [Example 21, (3,4-Dihydro-2H-quinolin-1-yl)-[2-(3-iodo-phenoxy)-pyridin-3-yl]-methanone] the EC50 was 345 nM.
In the case of `O=C(c1cccnc1Oc1cc(C(F)(F)F)cc(Cl)c1F)N1CCCc2ccccc21` [Example 22, [2-(3-Chloro-2-fluoro-5-trifluoromethyl-phenoxy)-pyridin-3-yl]-(3,4-dihydro-2H-quinolin-1-yl)-methanone], the EC50 is reported as 651 nM.
`O=C(c1cccnc1Oc1cccc(Br)c1)N1CCCc2ccccc21` [Example 23, [2-(3-Bromo-phenoxy)-pyridin-3-yl]-(3,4-dihydro-2H-quinolin-1-yl)-methanone] was tested, and the EC50 was 232 nM.
Work on `O=C(c1cc(F)cnc1Oc1cccc(Cl)c1)N1CCCc2ccccc21` [Example 25, [2-(3-Chloro-phenoxy)-5-fluoro-pyridin-3-yl]-(3,4-dihydro-2H-quinolin-1-yl)-methanone] yielded an EC50 of 128 nM.
`O=C(c1cc(F)cnc1Oc1cc(F)ccc1F)N1CCCc2ccccc21` [Example 26, [2-(2,5-Difluoro-phenoxy)-5-fluoro-pyridin-3-yl]-(3,4-dihydro-2H-quinolin-1-yl)-methanone] gave an EC50 of 106 nM.
In the case of `O=C(c1cc(Cl)cnc1Oc1cc(Cl)ccc1Cl)N1CCCc2ccccc21` [Example 27, [5-Chloro-2-(2,5-dichloro-phenoxy)-pyridin-3-yl]-(3,4-dihydro-2H-quinolin-1-yl)-methanone], the EC50 is reported as 145 nM.
`O=C(c1cc(Cl)cnc1Oc1cc(F)ccc1F)N1CCCc2ccccc21` [Example 28, [5-Chloro-2-(2,5-difluoro-phenoxy)-pyridin-3-yl]-(3,4-dihydro-2H-quinolin-1-yl)-methanone] gave an EC50 of 1980 nM.
Molecule `O=C(c1ccc(C(F)(F)F)nc1Oc1cc(Cl)ccc1Cl)N1CCCc2ccccc21` [Example 29, [2-(2,5-Dichloro-phenoxy)-6-trifluoromethyl-pyridin-3-yl]-(3,4-dihydro-2H-quinolin-1-yl)-methanone] has an EC50 of 144 nM.
`O=C(c1cccnc1Oc1cccc(Cl)c1)N1CCOc2ccccc21` [Example 30, [2-(3-Chloro-phenoxy)-pyridin-3-yl]-(2,3-dihydro-benzo[1,4]oxazin-4-yl)-methanone] was tested, and the EC50 was 436 nM.
With `Cc1ccc2c(c1)CCCN2C(=O)c1cccnc1Oc1cc(Cl)ccc1Cl` [Example 31, [2-(2,5-Dichloro-phenoxy)-pyridin-3-yl]-(6-methyl-3,4-dihydro-2H-quinolin-1-yl)-methanone] the EC50 was 138 nM.
With `CCN(C(=O)c1cccnc1Oc1cc(Cl)ccc1Cl)c1ccccc1` [Example 32, 2-(2,5-Dichloro-phenoxy)-N-ethyl-N-phenyl-nicotinamide] the EC50 was 70 nM.
